Laboratory results reported in patent publication US20200371122A1, “BIOMARKER FOR SENESCENT CELLS” (Buck Institute for Research on Aging, priority 2017, published 2020).

Test system: IMR-90 fibroblasts
Assay type: cell-based, human
Settings: for number of cells following irradiation: 5 Gy IR, 10 days
Experimental: Human fetal lung fibroblasts (IMR-90) were cultured in Dulbecco's modified eagle medium (DMEM) supplemented with 10% FBS and penicillin/streptomycin. LL 29 (AnHa) cells were obtained from the ATCC and growth to confluence using the ATCC protocol, but were subcultured as described for IMR-90 before initiation of all experiments. Quiescence was induced by replacing culture media with media containing 0.2% FBS. MCF-7 and MDA-MB-231 breast cancer cells were cultured in RPMI supplemented with 10% FBS and penicillin/streptomycin. All cells were cultured at 3% O2, and used between 25 and 40 population doublings. All cells were mycoplasma free.
RNA was extracted from cells or tissues using commercially available kits (Isolate II—Bioline for cells; Direct-zol—Zymo for tissues) according to the manufacturer's instructions. cDNA synthesis was performed using a High Capacity cDNA Reverse Transcription Kit (Thermo Fisher) according to the manufacturer's instructions. Quantitative PCR was performed on a LightCycler 480 II (Roche) using primers and probes designed for the Universal Probe Library. Primers and probes used for human transcripts were ACTB: 5′-CCAACCGCGAGAAGATGA (SEQ ID NO:1), 5′-TCCATCACGATGCCAGTG (SEQ ID NO:2), Probe #64; TUBA: 5′-cttcgtctccgccatcag (SEQ ID NO:3), 5′-ttgccaatctggacacca (SEQ ID NO:4), Probe #58; ALOX5: 5′-[…] (SEQ ID NO:5), 5′-[…] (SEQ ID NO:6), Probe #64; ALOX5AP: 5′-ggtctgcggggctacttt (SEQ ID NO:7), 5′-[…] (SEQ ID NO:8), Probe #18; ALOX12: 5′-[…] (SEQ ID NO:9), 5′-agccaggtcgtcaggag (SEQ ID NO:10), Probe #32; ALOX15: 5′-[…] (SEQ ID NO:11), 5′-[…] (SEQ ID NO:12), Probe #76; ALOX15B: 5′-[…] (SEQ ID NO:13), 5′-actgggaggcgaagaagg (SEQ ID NO:14), Probe #51; AKR1C1: 5′-catgcctgtcctgggattt (SEQ ID NO:15), 5′-[…] (SEQ ID NO:16), Probe #49; AKR1C2: 5′-ctatgcgcctgcagaggt (SEQ ID NO:17), 5′-[…] (SEQ ID NO:18), Probe #31; AKR1C3: 5′-[…] (SEQ ID NO:19), 5′-[…] (SEQ ID NO:20), Probe #78; CYSLTR2: 5′-[…] (SEQ ID NO:21), 5′-[…] (SEQ ID NO:22), Probe #18; DPEP1: 5′-gacgtcctgaggctggtg (SEQ ID NO:23), 5′-[…] (SEQ ID NO:24), Probe #9 (SEQ ID NO:25), ELOVL2: 5′-[…] (SEQ ID NO:26), 5′-[…] (SEQ ID NO:27), Probe #53; ELOVL4: 5′-catttggcccatggattc (SEQ ID NO:28), 5′-[…] (SEQ ID NO:29), Probe #31; ELOVL5: 5′-cccttccatgcgtccata (SEQ ID NO:30), 5′-[…] (SEQ ID NO:31), Probe #31; EPHX2: 5′-ttctgctggacaccctgaa (SEQ ID NO:32), 5′-[…] (SEQ ID NO:33), Probe #45; GPX4: 5′-ttcccgtgtaaccagttcg (SEQ ID NO:34), 5′-[…] (SEQ ID NO:35), Probe #36; LTA4H: 5′-ctgctctcacggtccagtc (SEQ ID NO:36), 5′-[…] (SEQ ID NO:37), Probe #64; LTBR2: 5′-[…] (SEQ ID NO:38), 5′-[…] (SEQ ID NO:39), Probe #33; LTC4S: 5′-[…] (SEQ ID NO:40), 5′-[…] (SEQ ID NO:41), Probe #18; PTGDS: 5′-[…] (SEQ ID NO:42), 5′-[…] (SEQ ID NO:43), Probe #36; PTGES: 5′-agagatgcctgcccacag (SEQ ID NO:44), 5′-tggccaccacgtacatctt (SEQ ID NO:45), Probe #4; PTGES2: 5′-[…] (SEQ ID NO:46), 5′-[…] (SEQ ID NO:47), Probe #49; PTGES3 (SEQ ID NO:48), 5′-[…] (SEQ ID NO:49), 5′-[…] (SEQ ID NO:50), Probe #48; PTGIS: 5′-[…] (SEQ ID NO:51), 5′-[…] (SEQ ID NO:52), Probe #45; PTGR1: 5′-atgatggggcagcaagtg (SEQ ID NO:53), 5′-cccatcagaaatggagtgc (SEQ ID NO:54), Probe #64; PTGS1: 5′-[…] (SEQ ID NO:55), 5′-gtggtggtccatgttcctg (SEQ ID NO:56), Probe #81; PTGS2: 5′-gatccccagggctcaaac (SEQ ID NO:57), 5′-[…] (SEQ ID NO:58), Probe #61; TBXAS1: 5′-[…] (SEQ ID NO:59), 5′-tgcctcccgtgtgaatct (SEQ ID NO:60), Probe #73; AREG: 5′-[…] (SEQ ID NO:61), 5′-[…] (SEQ ID NO:62), Probe #73; CCL2: 5′-AGTCTCTGCCGCCCTTCT (SEQ ID NO:63), 5′-GTGACTGGGGCATTGATTG (SEQ ID NO:64), Probe #40; CCL27: 5′-[…] (SEQ ID NO:65), 5′-gctgggtggcagtaggaat (SEQ ID NO:66), Probe #18; CXCL1: 5′-[…] (SEQ ID NO:67), 5′-[…] (SEQ ID NO:68), Probe #52; HGF: 5′-[…] (SEQ ID NO:69), 5′-[…]

CS(=O)(=O)Nc1ccc([N+](=O)[O-])cc1OC1CCCCC1 [NS-398]
number of cells following irradiation: significantly increased | cell number relative to DMSO-treated SEN(IR) cells (SEN(IR) cells counted for IL-6 ELISA normalization): increase in cell number

CC(c1cc2ccccc2s1)N(O)C(N)=O (stereo not drawn) [zileuton]
number of cells following irradiation: mildly increased
